The results in this text go back to ChEMBL document CHEMBL1201862, “PubChem BioAssay data set” (2004).

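Five compound concentrations were applied to cells in 96-well plates for 48 hours; endpoints were derived by simple linear interpolation of the resulting dose-response curve. GI50 marks 50% less growth.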 The source made the active and inactive calls. Rule as the data show it: active = GI50 up to about 1.1 µM and inactive = higher. Bounds are passed on as bounds.

Experiment in all cases: NCI anticancer screen, dose series, 48 h
Test [1] deals with A549.
The subject of test [2] is DU-145.
In test [3] the test system is EKVX.
Test [4] deals with HCT-116.
The test system of test [5] is SW-620.
In test [6] the test system is SK-OV-3.
The subject of test [7] is LOX IMVI.
For test [8], the system named is NCI-H226.
The subject of test [9] is SR.
Test [10] deals with SF-539.
The test system of test [11] is OVCAR-5.
Test [12] relates to UO-31.
Test [13] deals with U-251.
Test [14] deals with COLO 205.
The test system of test [15] is HOP-92.
Test [16] concerns HOP-62.
In test [17] the test system is OVCAR-8.
In test [18] the test system is HT-29.
The subject of test [19] is NCI-H522.
Test [20] has as its system A498.

Take `CC(C)CC(NC(=O)C(O)C(N)Cc1ccccc1)C(=O)O` (stereo not drawn): the GI50 in test [1], in test [2], in test [3], in [4], in test [5] and in test [6] was > 100 µM (inactive) throughout. Also, the GI50 was > 100 µM (inactive) in test [7]; > 100 µM (inactive) in test [8]; > 100 µM (inactive) in test [9]; > 100 µM (inactive) in [10]; > 100 µM (inactive) in test [11]; 56.4 µM (inactive) in [12]. Moreover, the GI50 in test [13], in test [14], in test [15], in test [16], in test [17] and in test [18] was > 100 µM (inactive) throughout.
Turning to `O=C(O)c1nn(-c2ccccc2)nc1-c1nn(-c2ccccc2)nc1C(=O)O`, the GI50 in [1], in test [2], in test [3], in test [4], in test [5] and in test [6] was > 100 µM (inactive) each time. Also, the GI50 in [7], in [8], in test [9], in [10], in test [11] and in [12] was > 100 µM (inactive) each time. For the same compound, the GI50 in test [13], in test [14], in test [15], in [16], in test [17] and in test [18] was > 100 µM (inactive) throughout.
As to `Cc1c(CNc2ccc(C(=O)NC(CCCNC(=O)c3ccccc3C(=O)O)C(=O)O)cc2)cnc2nc(N)nc(N)c12` (stereo not drawn), the GI50 in test [1] is 0.000419 µM (active); in test [2], 0.00091 µM (active); in [3], 0.00248 µM (active); in test [4], 0.000582 µM (active); in test [5] it was < 0.0001 µM (active); in test [6] it was 0.00644 µM (active). The GI50 in test [7] is < 0.0001 µM (active); in test [8] it was 0.000617 µM (active); in test [19], 0.00151 µM (active); in test [9], 0.000452 µM (active); in test [10], 0.000461 µM (active); in test [11], 0.199 µM (active). Besides, the GI50 was 0.001 µM (active) in [12]; 0.00358 µM (active) in [13]; 0.00671 µM (active) in test [14]; 2.09 µM (inactive) in test [15]; 0.387 µM (active) in test [16]; 0.000324 µM (active) in [17]. The GI50 in [18] is 0.001 µM (active).
Turning to `CCOC(=O)CC(c1ccccc1)C(C)(C(=O)OCC)C(=O)OCC` (stereo not drawn), the GI50 in test [1], in [2], in test [3], in test [4], in test [5] and in test [6] was > 100 µM (inactive) each time. For the same compound, the GI50 is > 100 µM (inactive) in [7]; > 100 µM (inactive) in test [8]; > 100 µM (inactive) in test [19]; 61.2 µM (inactive) in test [9]; > 100 µM (inactive) in test [10]; > 100 µM (inactive) in [11]. The GI50 was 33.3 µM (inactive) in [12]; > 100 µM (inactive) in test [13]; > 100 µM (inactive) in test [14]; > 100 µM (inactive) in [16]; > 100 µM (inactive) in test [17]; > 100 µM (inactive) in test [18].
Consider `Cc1ccc(S(=O)(=O)N/N=C2/C3CCC(C3)C2c2ccccc2)cc1` (stereo not drawn), for which the GI50 in [1], in test [2], in [3], in test [4], in test [5] and in test [6] was > 100 µM (inactive) in each case. The GI50 in test [7], in [8], in test [19], in test [9], in [11] and in [12] was > 100 µM (inactive) throughout. For the same compound, the GI50 in test [13], in [14], in test [15], in test [16], in [17] and in test [18] was > 100 µM (inactive) in each case.
Consider `C/C(CC1C2CCCC1C2)=N\NC(N)=O` (stereo not drawn), for which the GI50 in test [1], in [2], in test [3], in [4], in [5] and in test [6] was > 100 µM (inactive) each time. The GI50 in test [7], in test [8], in test [19], in test [9], in test [10] and in [11] was > 100 µM (inactive) in each case. The GI50 in test [12], in [13], in test [14], in test [15], in test [16] and in [17] was > 100 µM (inactive) each time. Also, the GI50 in [18] is > 100 µM (inactive).
On to `CN(C)CCCCN1c2ccccc2Sc2ccc(N=[N+]=[N-])cc21`, for which the GI50 in test [1] was 9.93 µM (inactive); in [2] it was 5.7 µM (inactive); in test [3], 13.2 µM (inactive); in test [4], 4.21 µM (inactive); in test [5] it was 4.82 µM (inactive); in test [6], 12.9 µM (inactive). In addition, the GI50 in [7] is 2.26 µM (inactive); in [8] it was 6.11 µM (inactive); in [19], 4.09 µM (inactive); in test [10] it was 5.05 µM (inactive); in [11], 3.3 µM (inactive); in test [12], 6.34 µM (inactive). In addition, the GI50 in test [13] is 3.13 µM (inactive); in test [14], 1.72 µM (inactive); in test [15], 3.56 µM (inactive); in test [16], 11.5 µM (inactive); in [17], 10 µM (inactive); in test [18], 2.22 µM (inactive). The GI50 in test [20] is 8.73 µM (inactive).
Take `CC1(C)N=C(C2CCCN2C(=O)OCc2ccccc2)OC1=O` (stereo not drawn): the GI50 in test [1], in test [2], in [4], in test [5], in [6] and in [7] was > 100 µM (inactive) throughout. The GI50 in test [8], in test [19], in test [10], in [11], in test [12] and in test [13] was > 100 µM (inactive) in each case. Moreover, the GI50 in test [14], in test [16], in [17], in test [18] and in test [20] was > 100 µM (inactive) each time.
In the case of `Cn1c(=O)c2c(nc(N/N=C3/SCC(=O)N3Cc3ccccc3)n2C)n(C)c1=O`, the GI50 is 89.5 µM (inactive) in [1]; > 100 µM (inactive) in [2]; 94.2 µM (inactive) in test [3]; > 100 µM (inactive) in [4]; 43.5 µM (inactive) in test [6]; > 100 µM (inactive) in test [8]. Besides, the GI50 in test [19] was 71.4 µM (inactive); in test [10], 25.6 µM (inactive); in test [11], > 100 µM (inactive); in [12] it was > 100 µM (inactive); in test [13], 54.6 µM (inactive); in test [14], 50.4 µM (inactive). Also, the GI50 is 5.9 µM (inactive) in test [15]; > 100 µM (inactive) in test [16]; > 100 µM (inactive) in test [17]; 48.4 µM (inactive) in [18]; > 100 µM (inactive) in [20].
Consider `O=c1cccc2n1C[C@H]1CNC[C@H]2C1`, for which the GI50 in test [1], in [2], in test [3], in test [4], in test [5] and in [6] was > 100 µM (inactive) throughout. In addition, the GI50 in [7], in [8], in test [10], in test [11], in test [12] and in test [13] was > 100 µM (inactive) throughout. Further, the GI50 in test [14], in [15], in test [16], in test [17], in [18] and in [20] was > 100 µM (inactive) in each case.
Consider `COc1ccccc1-c1cc(O)c2c(C)cc(C)nc2n1`, for which the GI50 in [1] was 59.7 µM (inactive); in test [2], > 100 µM (inactive); in [3] it was 67.5 µM (inactive); in test [5] it was 61.7 µM (inactive); in [6], > 100 µM (inactive); in test [7] it was 75.2 µM (inactive). In addition, the GI50 is > 100 µM (inactive) in test [8]; 43.7 µM (inactive) in test [19]; > 100 µM (inactive) in [10]; > 100 µM (inactive) in [11]; 47.1 µM (inactive) in [12]; 36.1 µM (inactive) in test [14]. Moreover, the GI50 in test [15] was 31.8 µM (inactive); in test [16], > 100 µM (inactive); in test [17], 90.2 µM (inactive); in test [18], 56.8 µM (inactive); in test [20] it was 39.6 µM (inactive).
